Measurements taken from ChEMBL document CHEMBL4417631, “Oral peptide inhibitors of interleukin-23 receptor and their use to treat inflammatory bowel diseases” (2017).
*1 amine or outer side, *2 acyl side, *3 side chain or, on linkers, in order; H or OH if unused. Where a SMILES comes first, the peptide text is derived from it. Bridges are numbered along the chain shown (N, C = ends). [ ]: non-standard residue; d: D form. Abu(4-yl) = O=C([C@H](CC[*:3])N[*:1])[*:2]; AEF = NCCOc1ccc(C[C@H](N)C(=O)O)cc1; Tic = O=C(O)[C@@H]1Cc2ccccc2CN1; αMeK = C[C@](N)(CCCCN)C(=O)O; Dap = NC[C@H](N)C(=O)O

Molecular target: T1, Interleukin-23 receptor (Homo sapiens, UniProt Q5VWK5)
T1 sequence (Q5VWK5 whole entry): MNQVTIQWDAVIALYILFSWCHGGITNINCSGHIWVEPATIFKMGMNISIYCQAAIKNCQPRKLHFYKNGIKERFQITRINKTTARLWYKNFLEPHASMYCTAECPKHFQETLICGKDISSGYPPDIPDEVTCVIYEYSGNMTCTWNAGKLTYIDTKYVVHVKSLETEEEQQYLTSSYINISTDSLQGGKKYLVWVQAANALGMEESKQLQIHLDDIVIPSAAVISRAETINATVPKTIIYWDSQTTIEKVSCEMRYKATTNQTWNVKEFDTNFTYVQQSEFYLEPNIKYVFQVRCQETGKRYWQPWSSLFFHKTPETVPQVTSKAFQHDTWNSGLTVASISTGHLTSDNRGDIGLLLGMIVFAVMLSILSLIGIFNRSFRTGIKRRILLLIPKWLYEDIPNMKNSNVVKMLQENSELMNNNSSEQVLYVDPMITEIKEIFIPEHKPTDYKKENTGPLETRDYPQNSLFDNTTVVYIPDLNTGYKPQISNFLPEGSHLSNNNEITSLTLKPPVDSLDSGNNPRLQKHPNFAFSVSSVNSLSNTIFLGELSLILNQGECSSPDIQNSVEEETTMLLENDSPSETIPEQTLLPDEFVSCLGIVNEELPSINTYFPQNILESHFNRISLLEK
Test: Inhibition of interleukin-23 binding to human interleukin-23 receptor incubated for 2 hrs by competitive binding ELISA

Structure (SMILES) | IC50 [nM]
CC(=O)N[C@@H](CCCNC(=N)N)C(=O)N[C@@H](CCC(=O)O)C(=O)NCC(=O)N[C@H](C(=O)N[C@@H](CS)C(=O)N[C@@H](CO)C(=O)N[C@H](C(=O)N[C@@H](Cc1c[nH]c2ccccc12)C(=O)N[C@@H](CCCCN)C(=O)N[C@@H](CS)C(=O)N[C@@H](Cc1ccc(O)cc1)C(=O)N[C@@H](Cc1c[nH]c2ccccc12)C(=O)N[C@@H](Cc1cnc[nH]1)C(=O)N[C@H](C(=O)N[C@@H](Cc1ccccc1)C(=O)NCC(N)=O)[C@@H](C)O)[C@@H](C)O)[C@@H](C)O (Ac-REGTCSTWKCYWHTFG-NH2) | 500 to 1000
CC[C@H](C)[C@H](NC(=O)[C@H](Cc1cnc[nH]1)NC(=O)[C@H](Cc1c[nH]c2ccccc12)NC(=O)[C@H](Cc1ccc(O)cc1)NC(=O)[C@H](CS)NC(=O)[C@H](CCCCN)NC(=O)[C@H](Cc1c[nH]c2ccccc12)NC(=O)[C@H](CC(=O)O)NC(=O)[C@H](CCCCN)NC(=O)[C@@H](N)CS)C(=O)N[C@@H](Cc1ccc(O)cc1)C(=O)NCC(N)=O (H-CKDWKCYWHIYG-NH2) | > 1000
CC(=O)N[C@@H](CS)C(=O)N[C@@H](CCCCN)C(=O)N[C@H](C(=O)N[C@@H](Cc1c[nH]c2ccccc12)C(=O)N[C@@H](CCC(N)=O)C(=O)N[C@@H](CS)C(=O)N[C@@H](Cc1ccc(O)cc1)C(=O)N[C@@H](Cc1c[nH]c2ccccc12)C(=O)N[C@@H](CCCNC(=N)N)C(=O)N[C@H](C(=O)N[C@@H](Cc1ccccc1)C(=O)NCC(=O)NCCOCC(=O)N[C@H](CCCCN)C(N)=O)C(C)C)[C@@H](C)O | 40
CC(=O)NCC(=O)NCC(=O)N[C@H](C(=O)N[C@@H](CCC(=O)O)C(=O)N[C@@H](CS)C(=O)N[C@@H](CC(N)=O)C(=O)N[C@@H](CC(=O)O)C(=O)N[C@@H](Cc1c[nH]c2ccccc12)C(=O)N[C@@H](CCC(N)=O)C(=O)N[C@@H](CS)C(=O)N[C@@H](Cc1ccc(O)cc1)C(=O)N[C@@H](Cc1c[nH]c2ccccc12)C(=O)N[C@@H](Cc1cnc[nH]1)C(=O)N[C@H](C(=O)N[C@@H](Cc1ccccc1)C(=O)NCC(N)=O)[C@@H](C)O)C(C)C (Ac-GGVECNDWQCYWHTFG-NH2) | 500 to 1000
CC(=O)N[C@@H](CS)C(=O)N[C@@H](CCC(N)=O)C(=O)N[C@H](C(=O)N[C@@H](Cc1c[nH]c2ccccc12)C(=O)N[C@@H](CCC(N)=O)C(=O)N[C@@H](CS)C(=O)N[C@@H](CC1CCCCC1)C(=O)N[C@@H](Cc1c[nH]c2ccccc12)C(=O)N[C@@H](CCC(C)C)C(=O)N[C@@H](CCC(=O)O)C(=O)N[C@@H](CC(N)=O)C(=O)NCC(N)=O)[C@@H](C)O | 6000
N=C(N)NCCC[C@H](NC(=O)[C@H](Cc1c[nH]c2ccccc12)NC(=O)[C@H](Cc1ccc(O)cc1)NC(=O)[C@@H]1CSCCC(=O)N[C@@H](CCC(N)=O)C(=O)N[C@@H](CC(=O)O)C(=O)N[C@@H](Cc2c[nH]c3ccccc23)C(=O)N[C@@H](CCC(N)=O)C(=O)N1)C(=O)N[C@@H](CCC(=O)O)C(=O)N[C@@H](CC(N)=O)C(=O)NCC(=O)NCCOCC(=O)N[C@H](CCCCN)C(N)=O | 30000
CC(=O)N[C@@H](CS)C(=O)N[C@@H](C)C(=O)N[C@@H](CC(=O)O)C(=O)N[C@@H](Cc1c[nH]c2ccccc12)C(=O)N[C@@H](CCCCNC(=O)COCC(=O)NCCCC[C@H](NC(=O)[C@H](Cc1c[nH]c2ccccc12)NC(=O)[C@H](CC(=O)O)NC(=O)[C@H](C)NC(=O)[C@H](CS)NC(C)=O)C(=O)N[C@@H](CS)C(=O)N[C@@H](Cc1ccc(O)cc1)C(=O)N[C@@H](Cc1c[nH]c2ccccc12)C(=O)N[C@@H](Cc1cnc[nH]1)C(=O)N[C@H](C(=O)N[C@@H](Cc1ccccc1)C(=O)NCC(=O)O)[C@@H](C)O)C(=O)N[C@@H](CS)C(=O)N[C@@H](Cc1ccc(O)cc1)C(=O)N[C@@H](Cc1c[nH]c2ccccc12)C(=O)N[C@@H](Cc1cnc[nH]1)C(=O)N[C@H](C(=O)N[C@@H](Cc1ccccc1)C(=O)NCC(=O)O)[C@@H](C)O | > 10000
CC(=O)NCCCC[C@H](NC(=O)[C@](C)(CCCCN)NC(=O)[C@@H]1Cc2ccccc2CN1C(=O)[C@H](Cc1ccc(OCCN)cc1)NC(=O)[C@@H]1CSCC[C@H](NC(C)=O)C(=O)N[C@@H](CN)C(=O)N[C@@H]([C@@H](C)O)C(=O)N[C@@H](Cc2c[nH]c3ccccc23)C(=O)N[C@@H](CCC(N)=O)C(=O)N1)C(=O)N[C@@H](CC(N)=O)C(=O)NCC(N)=O (Ac-[Abu(4-yl)][Dap]TWQC[AEF][Tic][αMeK]K(Ac)NG-NH2; thioether 1-6) | > 3000
CC(=O)N[C@H](CCCCN)C(=O)N[C@@H](CS)C(=O)N[C@@H](CCCNC(=N)N)C(=O)N[C@@H](CC(=O)O)C(=O)N[C@@H](Cc1c[nH]c2ccccc12)C(=O)N[C@@H](CCC(N)=O)C(=O)N[C@@H](CS)C(=O)N[C@@H](Cc1ccc(O)cc1)C(=O)N[C@@H](Cc1cccc2ccccc12)C(=O)N[C@@H](Cc1cnc[nH]1)C(=O)N[C@H](C(=O)N[C@@H](Cc1cnc[nH]1)C(=O)N(C)CC(=O)NCCOCCC(=O)N[C@H](CCCNC(=N)N)C(N)=O)[C@@H](C)O | 500 to 1000
CC(=O)N[C@@H](CS)C(=O)N[C@@H](C)C(=O)N[C@@H](CC(=O)O)C(=O)N[C@@H](Cc1c[nH]c2ccccc12)C(=O)N[C@H](C(=O)N[C@@H](CS)C(=O)N[C@@H](Cc1ccc(O)cc1)C(=O)N[C@@](C)(Cc1ccc(F)cc1)C(=O)N[C@@H](CCCN)C(=O)N[C@@H](CN)C(=O)N[C@@H](Cc1ccccc1)C(=O)NCC(=O)NCCOCC(=O)N[C@H](CCCCN)C(N)=O)C(C)C | > 30000

Next, values leading:

IC50 [nM] | Structure (SMILES)
> 1000 | CC(=O)N[C@@H](CS)C(=O)N[C@@H](C)C(=O)N[C@@H](CC(=O)O)C(=O)N[C@@H](Cc1c[nH]c2ccccc12)C(=O)N[C@@H](CCCCN)C(=O)N[C@@H](CS)C(=O)N[C@@H](Cc1ccc(O)cc1)C(=O)N[C@@H](Cc1c[nH]c2ccccc12)C(=O)N[C@@H](Cc1cnc[nH]1)C(=O)N[C@H](C(=O)N[C@@H](Cc1ccccc1)C(=O)NCC(=O)O)[C@@H](C)O
< 500 | CC(=O)N[C@@H](CS)C(=O)N[C@@H](C)C(=O)N[C@H](C(=O)N[C@@H](Cc1c[nH]c2ccccc12)C(=O)N[C@@H](CCC(N)=O)C(=O)N[C@@H](CS)C(=O)N[C@@H](Cc1ccc(O)cc1)C(=O)N[C@@H](Cc1c[nH]c2ccccc12)C(=O)N[C@@H](Cc1cnc[nH]1)C(=O)N[C@@H](CCC(=O)O)C(=O)N[C@@H](Cc1ccc(O)cc1)C(=O)NCC(N)=O)[C@@H](C)O (Ac-CATWQCYWHEYG-NH2)
> 1000 | CC(=O)N[C@@H](CS)C(=O)N[C@@H](C)C(=O)N[C@@H](CC(=O)O)C(=O)N[C@@H](Cc1c[nH]c2ccccc12)C(=O)N[C@H](C(=O)N[C@@H](CS)C(=O)N[C@@H](Cc1ccc(O)cc1)C(=O)N[C@@H](Cc1cccc2ccccc12)C(=O)N[C@@H](Cc1cnc[nH]1)C(=O)N[C@H](C)C(=O)N[C@@H](Cc1ccccc1)C(=O)NCC(N)=O)C(C)C
< 500 | CC(=O)N[C@@H](CS)C(=O)N[C@@H](C)C(=O)N[C@@H](CC(=O)O)C(=O)N[C@@H](Cc1c[nH]c2ccccc12)C(=O)N[C@H](C(=O)N[C@@H](CS)C(=O)N[C@@H](Cc1ccc(O)cc1)C(=O)N[C@@H](Cc1c[nH]c2ccccc12)C(=O)N[C@@H](Cc1cnc[nH]1)C(=O)N[C@H](C(=O)N[C@@H](Cc1ccccc1)C(=O)NCC(=O)N1CC[C@H]1C(=O)N[C@H](CCCCN)C(=O)O)[C@@H](C)O)C(C)C
> 1000 | CC(C)[C@H](NC(=O)[C@H](Cc1c[nH]c2ccccc12)NC(=O)[C@H](CC(=O)O)NC(=O)[C@H](CS)NC(=O)[C@H](C)N)C(=O)N[C@@H](CS)C(=O)N[C@@H](Cc1ccc(O)cc1)C(=O)N[C@@H](Cc1c[nH]c2ccccc12)C(=O)N[C@@H](Cc1cnc[nH]1)C(=O)N[C@H](C(=O)N[C@@H](Cc1ccccc1)C(=O)NCC(N)=O)[C@@H](C)O
> 1000 | CC(=O)N[C@@H](CS)C(=O)N[C@@H](C)C(=O)N[C@@H](CC(=O)O)C(=O)N[C@@H](Cc1c[nH]c2ccccc12)C(=O)N[C@H](C(=O)N[C@@H](CS)C(=O)N[C@@H](Cc1ccc(O)cc1)C(=O)N[C@@H](Cc1c[nH]c2ccccc12)C(=O)N[C@@H](Cc1cnc[nH]1)C(=O)N[C@H](C(=O)N[C@@H](Cc1ccccc1)C(=O)N[C@H](CCCCN)C(=O)O)[C@@H](C)O)C(C)C
500 to 1000 | CC(C)[C@H](NC(=O)[C@H](Cc1c[nH]c2ccccc12)NC(=O)[C@H](CC(=O)O)NC(=O)[C@H](C)NC(=O)[C@@H](N)CS)C(=O)N[C@@H](CS)C(=O)N[C@@H](Cc1ccc(O)cc1)C(=O)N[C@@H](Cc1ccc2ccccc2c1)C(=O)N[C@@H](Cc1cnc[nH]1)C(=O)N[C@H](C(=O)N[C@@H](Cc1ccccc1)C(=O)NCC(N)=O)[C@@H](C)O
> 1000 | C[C@H](N)C(=O)N[C@@H](C)C(=O)N[C@@H](CC(=O)O)C(=O)N[C@@H](Cc1c[nH]c2ccccc12)C(=O)N[C@@H](CS)C(=O)N[C@@H](C)C(=O)N[C@@H](Cc1ccc(O)cc1)C(=O)N[C@@H](Cc1c[nH]c2ccccc12)C(=O)N[C@@H](CS)C(=O)N[C@H](C(=O)N[C@@H](Cc1ccccc1)C(=O)NCC(N)=O)[C@@H](C)O (H-AADWCAYWCTFG-NH2)
> 1000 | CC(=O)N[C@@H](CS)C(=O)N[C@@H](C)C(=O)N[C@@H](CC(=O)O)C(=O)N[C@@H](Cc1c[nH]c2ccccc12)C(=O)N[C@H](C(=O)N[C@@H](CS)C(=O)N[C@@H](Cc1ccc(O)cc1)C(=O)N[C@@H](Cc1cccc2ccccc12)C(=O)N[C@@H](Cc1cnc[nH]1)C(=O)NCCOCCC(N)=O)C(C)C
